≈ marks a conversion by molar mass, not a printed value.
Assays:
MV-4-11 xenograft = conditions: preclinical, no reference given; cited from earlier work
MV-4-11 = conditions: ref data on file, Fosun Pharma; cited from earlier work
Unbound fraction = type: in vitro ADME

## CN1CCN(Cc2ccc(NC(=O)c3[nH]ncc3Nc3ncnc4[nH]ccc34)cc2)CC1 [FN-1501]
MV-4-11 xenograft
  Dose at which tumor growth reached stasis: 5 mg/kg
MV-4-11
  IC50: 2.6 ng/mL (≈ 6.03 nM)
Unbound fraction
  Unbound fraction: 30%

From publication PMC10177510, “A Multicenter, Open-Label, Phase I/II Study of FN-1501 in Patients with Advanced Solid Tumors” (Cancers, 2023)
